Literature values, collected in PMC5520971 (Organic & biomolecular chemistry, 2017).

Columns and labels:
[1] = test system: hepatocellular carcinoma cells; details: ref [18]
[2] = test system: hepatocellular carcinoma cells; details: ref [18]; remark: listed apart in the source

## CC1=C(/C=C/C(C)=C/C=C/C(C)=C/C(=O)O)C(C)(C)CCC1 [all-trans retinoic acid]
[1]
  growth of hepatocellular carcinoma cells in vitro: selectively inhibited the growth
[2]
  growth of hepatocellular carcinoma cells in a mouse xenograft model: selectively inhibited the growth
